Experimental data as given in US20100129856A1, “Methods and Devices for Cell Signaling Under Pulse Stimulation” (priority 2008, published 2010).
No end group written: not given here.

Key:
quiescent A431 cells = assay: Microfluidics-RWG biosensor DMR assay under pulse or sustained stimulation; assay type: cell-based, human; details: FIG. 8; for DMR signal under pulse stimulation compared with sustained epinephrine response: 2 min pulse, 2 nM epinephrine, 100 nM salbutamol, flow 1 microliter/min
Description: (§1) Cells were typically grown using ˜1 to 2×10^4 cells per well at passage 3 to 15 suspended in 50 μl of the corresponding culture medium in the biosensor microplate, and were cultured at 37° C. under air/5% CO2 for ˜1 day. Except for A431 which was subject to ˜20 hr starvation through continuously culture in the serum-free DMEM, the A459 cells were directly assayed without starvation. The confluency for all cells at the time of assays was ˜95% to 100%. For cell culture in the microfluidics-biosensor chamber systems, ˜4×10^4 cells suspended in 10 μl the medium containing 10% FBS were injected into the chamber, and were cultured at 37° C. under air/5% CO2 until ˜95% confluency was reached (˜1 day). To prevent drying during the culture, the biosensor device was maintained within a petri dish with a cover, and extra cell medium within the dish.
(§2) Label-free biosensor cell assays: Corning RWG (resonant waveguide grating) imaging system was used for label-free biosensor cell assays. The imaging system, based on swept wavelength interrogation, is capable of high resolution imaging, with a spatial resolution of 6 micron in the direction perpendicular to the propagation path of the coupled light, a resolution of about 150 or about 6 microns in the direction parallel to the propagation path of the coupled light. The cellular responses across the whole sensor were recorded in real time at each pixel (6 microns×6 microns). The cellular responses at defined locations or areas of the biosensor surface were averaged to generate responses of a population of cells within the detection area(s).
The A431 cells reached high confluency before assays, and were subject to starvation for overnight with serum free medium. For A549 cells, cells were grown to high confluency and used for assays without starvation. Before assays, the cell medium was replaced with 1× Hanks' balanced salt solution (HBSS) having 20 mM Hepes buffer, and incubated within the imaging system for about 1 hour. […] The cellular responses throughout the assays were recorded using the high resolution imaging system. […]

[1] = target: T1, β2-adrenergic receptor (β2AR) (Homo sapiens, UniProt P07550); assay: Buffer swapping RWG biosensor DMR assay (microplate) for long-acting agonism; assay type: cell-based
T1 construct: 2 nM epinephrine-induced DMR signal of quiescent A431 cells; host or cells: A431 (human epidermoid carcinoma), serum-starved (quiescent)
T1 sequence (P07550 whole entry): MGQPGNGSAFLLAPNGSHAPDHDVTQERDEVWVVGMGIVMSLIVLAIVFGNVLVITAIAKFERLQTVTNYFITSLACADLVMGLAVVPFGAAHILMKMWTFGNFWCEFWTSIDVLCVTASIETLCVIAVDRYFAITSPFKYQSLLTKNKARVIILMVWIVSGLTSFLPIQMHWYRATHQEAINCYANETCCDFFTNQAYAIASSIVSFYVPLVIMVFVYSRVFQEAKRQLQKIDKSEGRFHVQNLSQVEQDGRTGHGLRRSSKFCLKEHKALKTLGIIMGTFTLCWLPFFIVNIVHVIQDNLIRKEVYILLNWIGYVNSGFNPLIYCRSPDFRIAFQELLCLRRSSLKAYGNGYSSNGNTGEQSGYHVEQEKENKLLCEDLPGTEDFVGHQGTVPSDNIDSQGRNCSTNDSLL
Description: Cells were typically grown using ˜1 to 2×10^4 cells per well at passage 3 to 15 suspended in 50 μl of the corresponding culture medium in the biosensor microplate, and were cultured at 37° C. under air/5% CO2 for ˜1 day. […] The confluency for all cells at the time of assays was ˜95% to 100%.

PAR1 receptor = target: T2, PAR1 receptor (Homo sapiens, UniProt P25116); assay: Microfluidics-RWG biosensor DMR assay of A549 cells with PAR1 agonists; assay type: cell-based; details: for EC100: DMR; for Reversibility of the triggered cellular response: agonist removed after 30 min; for Response of pre-treated cells to second stimulation with 10 unit/ml thrombin: first exposure 30 min (SFLLR-amide 10 μM or thrombin 5 unit/ml), HBSS ~2 hours, then thrombin, FIG. 10; for P-DMR signal maximal amplitude (shift in resonant wavelength): thrombin 5 unit/ml, SFLLR-amide 10 μM, constant flow 1 microliter per min, FIG. 9
T2 construct: triggered an almost indistinguishable DMR signal in A549 cells; host or cells: A549 (human lung carcinoma), not starved
T2 sequence (P25116 22-425): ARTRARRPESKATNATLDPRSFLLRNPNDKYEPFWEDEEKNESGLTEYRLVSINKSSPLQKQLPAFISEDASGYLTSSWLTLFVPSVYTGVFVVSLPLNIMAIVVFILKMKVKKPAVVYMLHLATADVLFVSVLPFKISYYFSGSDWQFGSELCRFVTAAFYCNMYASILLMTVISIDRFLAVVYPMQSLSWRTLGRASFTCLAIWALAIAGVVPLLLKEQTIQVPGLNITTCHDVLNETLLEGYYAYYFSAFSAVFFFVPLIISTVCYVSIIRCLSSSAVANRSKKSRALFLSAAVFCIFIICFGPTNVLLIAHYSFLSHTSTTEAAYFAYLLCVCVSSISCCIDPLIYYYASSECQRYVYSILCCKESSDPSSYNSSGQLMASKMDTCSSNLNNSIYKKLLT
Description: as §1, §2
The A431 cells reached high confluency before assays, and were subject to starvation for overnight with serum free medium. For A549 cells, cells were grown to high confluency and used for assays without starvation. Before assays, the cell medium was replaced with 1× Hanks' balanced salt solution (HBSS) having 20 mM Hepes buffer, and incubated within the imaging system for about 1 hour. The chamber was filled with 6.6 micro-liters buffered solution. The HBSS buffer solution was initially introduced into the chamber from the inlet and flowed through the biosensor with a low flow rate (typically 1 μl/min or 1 microliter/min) using a controlled pump until a steady baseline was reached. Then, a first solution, typically a solution containing a receptor agonist or a compound dissolved in the HBSS buffer, was introduced by switching the valve, and flowed through the biosensor for a period of time (e.g., 1 min, or 5 min, or 30 min). Subsequently, the HBSS buffer solution was reintroduced and flowed through the biosensor to replace the first solution. After certain time period, a second solution, typically a solution containing a receptor agonist or a compound, either different or the same as the first solution, was introduced and flowed through the biosensor continuously to trigger a cellular response. The flow rate was typically relatively low (˜0.5 μ/min to 5 μl/min), such that no mechanical sensitive cellular responses were triggered, and the cellular responses observed were largely due to the chemical(s) in the solution. Different combinations of these steps can be applied, depending on the purpose of the assays. The cellular responses throughout the assays were recorded using the high resolution imaging system. Depending on the biosensor insert used, the biosensor has a dimension of 3 mm×3 mm or 2 mm×2 mm. The chamber dimension is a length of about 9 mm from the inlet to the outlet, a width of 5 mm, and a height of 100 microns from the sensor surface to the bottom surface of the chamber. The total volume of solution required to fill the chamber is about 6 micro-liters.
For biosensor cellular assays, a baseline was established first. All studies were carried out at controlled temperature (22° C.) and with three replicates for each measurement, unless specifically mentioned. […]

[2] = quiescent A431 cells, pulse about 60 sec, 100 nM norepinephrine, 100 nM salbutamol, 100 nM salmeterol, FIG. 7b

## CNC[C@H](O)c1ccc(O)c(O)c1 [epinephrine]
Quiescent A431 cells; 2 nM epinephrine flowed throughout the assay, 1 microliter/min
  DMR signal under sustained stimulation at slow flow rate: comparable to that obtained using microplate-based sustained response
Quiescent A431 cells
  DMR signal under pulse stimulation compared with sustained epinephrine response: much smaller response
[1]; A431 cells pre-treated with 2 nM epinephrine under sustained stimulation, data not shown
  Response to second stimulation with 2 nM epinephrine after sustained pre-treatment: completely desensitized
[1]; concluded from pulse stimulation through buffer swapping, quiescent A431 cells
  Long-acting or short-acting agonism at the β2AR: short-acting agonist
[1]; [2]
  Effect of pulse pre-treatment on the 2 nM epinephrine-induced DMR signal: little impact
[1]; quiescent A431 cells, pulse about 150 sec, 0.5 nM salmeterol, 1 nM CGP12177, 0.1 nM formeterol, FIG. 7a
  Effect of pulse pre-treatment on the 2 nM epinephrine-induced DMR signal: did not cause the de-sensitization

## thrombin
PAR1 receptor; A549 cells
  EC100: 5 unit/ml
  Reversibility of the triggered cellular response: largely irreversible
  Response of pre-treated cells to second stimulation with 10 unit/ml thrombin: only gave rise to a little response
  P-DMR signal maximal amplitude (shift in resonant wavelength): ~400 picometers
PAR1 receptor; A549 cells, 5 unit/ml agonist replaced with HBSS 30 min after stimulation, FIG. 9b
  DMR signal after switching back to HBSS: still maintained elevated signal

## CC(C)(C)NCC(O)c1ccc(O)c(CO)c1 (stereo not shown) [salbutamol]
Quiescent A431 cells
  DMR signal under pulse stimulation compared with sustained epinephrine response: much smaller response

## C[C@@H]1C[C@@H]([C@H](O)CC2CC(=O)NC(=O)C2)C(=O)[C@@H](C)C1 [cycloheximide]
PAR1 receptor; 10 μM cycloheximide in every solution, data not shown
  Effect on the second thrombin response of thrombin-treated A549 cells: largely eliminated

## NC[C@H](O)c1ccc(O)c(O)c1 [norepinephrine]
[1]; [2]
  Effect of pulse pre-treatment on the 2 nM epinephrine-induced DMR signal: little impact

## SFLLR-amide (SFLLR-NH2; UniProt P25116 42-46, looked up, fragment)
PAR1 receptor; A549 cells
  EC100: 10 µM
  Reversibility of the triggered cellular response: largely reversible
  Response of pre-treated cells to second stimulation with 10 unit/ml thrombin: still able to respond to the second stimulation with thrombin with slightly smaller amplitude
  P-DMR signal maximal amplitude (shift in resonant wavelength): ~400 picometers
PAR1 receptor; A549 cells, 10 μM agonist replaced with HBSS 30 min after stimulation, FIG. 9a
  Plateau level of DMR signal above the baseline after switching back to HBSS: about 120 picometers
